The supplement of paper PMC10883282

How the values were obtained:
Test in all cases: relative viability vs DMSO control (72 h) (fraction); higher = more viable cells
[1] = system: KHOS-NP
Summary of the method: (§1)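 Sarcoma cell lines in 384-well plates, seeded to reach 80–90% confluence, were given compound after 24 h and kept 72 h at 37 °C, 5% CO2, with 0.1% DMSO vehicle and a 5 µM positive control. Relative viability came from ATPLite as percent growth, averaged over up to triplicate wells. On the rescaled values, 1 equals full and 0 equals none.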

[2] = system: MES-SA
Summary of the method: as §1

[3] = system: SW872
Summary of the method: as §1

[4] = system: A204
Summary of the method: as §1

[5] = system: SW684
Summary of the method: as §1

[6] = system: SK-ES-1
Summary of the method: as §1

[7] = system: RD
Summary of the method: as §1

[8] = system: VA-ES-BJ
Summary of the method: as §1

[9] = system: SYO-1
Summary of the method: as §1

[10] = system: HS729
Summary of the method: as §1

[11] = system: SK-LMS-1
Summary of the method: as §1

[12] = system: G401
Summary of the method: as §1

COc1cc2nccc(Oc3ccc(NC(=O)C4(C(=O)Nc5ccc(F)cc5)CC4)cc3)c2cc1OC [Cabozantinib]
Conditions | relative viability
[1], 0.00017 µM | 1.07
[1], 0.00051 µM | 1.09
[1], 0.00152 µM | 1.1
[1], 0.00457 µM | 1.06
[1], 0.01372 µM | 1.09
[1], 0.04115 µM | 1.07
[1], 0.1235 µM | 1.08
[1], 0.3704 µM | 1.07
[1], 1.111 µM | 1.04
[1], 3.333 µM | 0.924
[1], 10 µM | 0.586
[2], 0.00017 µM | 0.994
[2], 0.00051 µM | 0.953
[2], 0.00152 µM | 0.947
[2], 0.00457 µM | 0.948
[2], 0.01372 µM | 0.934
[2], 0.04115 µM | 0.929
[2], 0.1235 µM | 0.912
[2], 0.3704 µM | 0.89
[2], 1.111 µM | 0.807
[2], 3.333 µM | 0.262
[2], 10 µM | 0.163
[3], 0.00017 µM | 1.08
[3], 0.00051 µM | 1.1
[3], 0.00152 µM | 1.08
[3], 0.00457 µM | 1.11
[3], 0.01372 µM | 1.06
[3], 0.04115 µM | 1.05
[3], 0.1235 µM | 1.06
[3], 0.3704 µM | 1.01
[3], 1.111 µM | 0.931
[3], 3.333 µM | 0.626
[3], 10 µM | 0.4
[4], 0.00017 µM | 1.04
[4], 0.00051 µM | 1.1
[4], 0.00152 µM | 1.06
[4], 0.00457 µM | 1.06
[4], 0.01372 µM | 0.9735
[4], 0.04115 µM | 0.785
[4], 0.1235 µM | 0.428
[4], 0.3704 µM | 0.378
[4], 1.111 µM | 0.341
[4], 3.333 µM | 0.312
[4], 10 µM | 0.229
[5], 0.00017 µM | 1.17
[5], 0.00051 µM | 1.19
[5], 0.00152 µM | 1.2
[5], 0.00457 µM | 1.2
[5], 0.01372 µM | 1.21
[5], 0.04115 µM | 1.121
[5], 0.1235 µM | 0.945
[5], 0.3704 µM | 0.848
[5], 1.111 µM | 0.852
[5], 3.333 µM | 0.652
[5], 10 µM | 0.38
[6], 0.00017 µM | 1.01
[6], 0.00051 µM | 1.05
[6], 0.00152 µM | 1.03
[6], 0.00457 µM | 0.986
[6], 0.01372 µM | 1.04
[6], 0.04115 µM | 0.992
[6], 0.1235 µM | 1
[6], 0.3704 µM | 0.941
[6], 1.111 µM | 0.885
[6], 3.333 µM | 0.514
[6], 10 µM | 0.128
[7], 0.00017 µM | 1.073
[7], 0.00051 µM | 1.09
[7], 0.00152 µM | 1.09
[7], 0.00457 µM | 1.12
[7], 0.01372 µM | 1.11
[7], 0.04115 µM | 1.12
[7], 0.1235 µM | 1.13
[7], 0.3704 µM | 1.11
[7], 1.111 µM | 1.13
[7], 3.333 µM | 0.864
[7], 10 µM | 0.501
[8], 0.00017 µM | 1.07
[8], 0.00051 µM | 1.06
[8], 0.00152 µM | 1.04
[8], 0.00457 µM | 1
[8], 0.01372 µM | 1.04
[8], 0.04115 µM | 1.03
[8], 0.1235 µM | 0.9802
[8], 0.3704 µM | 0.971
[8], 1.111 µM | 0.91
[8], 3.333 µM | 0.68
[8], 10 µM | 0.266
[9], 0.00017 µM | 1
[9], 0.00051 µM | 1
[9], 0.00152 µM | 0.974
[9], 0.00457 µM | 0.91
[9], 0.01372 µM | 0.915
[9], 0.04115 µM | 0.751
[9], 0.1235 µM | 0.708
[9], 0.3704 µM | 0.627
[9], 1.111 µM | 0.451
[9], 3.333 µM | 0.322
[9], 10 µM | 0.129
[10], 0.00017 µM | 1.1
[10], 0.00051 µM | 0.966
[10], 0.00152 µM | 0.973
[10], 0.00457 µM | 0.928
[10], 0.01372 µM | 0.9662
[10], 0.04115 µM | 0.897
[10], 0.1235 µM | 0.83
[10], 0.3704 µM | 0.749
[10], 1.111 µM | 0.64
[10], 3.333 µM | 0.504
[10], 10 µM | 0.288
[11], 0.00017 µM | 1.13
[11], 0.00051 µM | 1.13
[11], 0.00152 µM | 1.133
[11], 0.00457 µM | 1.13
[11], 0.01372 µM | 1.09
[11], 0.04115 µM | 0.982
[11], 0.1235 µM | 0.599
[11], 0.3704 µM | 0.379
[11], 1.111 µM | 0.339
[11], 3.333 µM | 0.205
[11], 10 µM | 0.11
[12], 0.00017 µM | 1.08
[12], 0.00051 µM | 1.05
[12], 0.00152 µM | 1.02
[12], 0.00457 µM | 1.06
[12], 0.01372 µM | 1.05
[12], 0.04115 µM | 0.997
[12], 0.1235 µM | 0.969
[12], 0.3704 µM | 0.858
[12], 1.111 µM | 0.804
[12], 3.333 µM | 0.514
[12], 10 µM | 0.215
